These results are taken from ChEMBL document CHEMBL1201862, “PubChem BioAssay data set” (2004).

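How tested: cells in 96-well plates exposed to compound for 48 hours at five concentrations. GI50 is the concentration that inhibits growth by half.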 The source made the active and inactive calls. Rule as the data show it: active = GI50 up to about 1.1 µM and inactive = higher.

Some test systems named below: COLO 205; HCT-15; Malme-3M; UACC-257; LOX IMVI; CCRF-CEM; SK-MEL-28; NCI-H460; NCI-H226; OVCAR-3; OVCAR-4; A498; SF-268; SR; HOP-92; OVCAR-5; PC-3; MDA-MB-231; DU-145; T47D.
What all share (experiment): NCI tumour cell line growth inhibition, 48 h

For the molecule `O=C(Nc1ccc(Sc2ccc(/N=N/c3c(O)c(S(=O)(=O)O)cc4cc(S(=O)(=O)O)ccc34)cc2)cc1)c1ccc(/N=N/c2c(O)c(S(=O)(=O)O)cc3cc(S(=O)(=O)O)ccc23)cc1`, the GI50 in the assay with COLO 205 is 15.9 µM (inactive); in the assay with HCT-15, 14.9 µM; with Malme-3M, 15.5 µM (inactive); with UACC-257, 13.8 µM (inactive); in the assay on LOX IMVI, 18.5 µM (inactive); in the assay on CCRF-CEM, 21.2 µM (inactive). Besides, the GI50 in the assay with SK-MEL-28 was 32.1 µM (inactive); with NCI-H460, 14.5 µM (inactive); with NCI-H226 it was 39.3 µM (inactive); with OVCAR-3, 15.8 µM (inactive); with OVCAR-4 it was 24.1 µM (inactive); in the assay on A498, 45.2 µM (inactive). Further, the GI50 is 38.7 µM (inactive) with SF-268, 10.9 µM (inactive) in the assay on SR, 30.5 µM (inactive) with HOP-92 and 47.2 µM (inactive) in the assay on OVCAR-5.

For `Cc1cc(Cl)ccc1NC(=O)CC1SC(NC(=O)c2ccccc2Cl)=NC1=O` (configuration not stated), the GI50 in the assay with HCT-15 was 19.1 µM; with Malme-3M, 19.7 µM (inactive); in the assay with UACC-257, 16.3 µM (inactive); in the assay with LOX IMVI, 21.9 µM (inactive); with CCRF-CEM, 2.86 µM (inactive); in the assay on SK-MEL-28 it was 22 µM (inactive). For the same molecule, the GI50 in the assay with NCI-H460 is > 100 µM (inactive); in the assay with NCI-H226 it was 25.2 µM (inactive); in the assay on OVCAR-3, 17.5 µM (inactive); in the assay on OVCAR-4, 20.9 µM (inactive); with A498, > 100 µM (inactive); with SF-268 it was 16.9 µM (inactive). Further, the GI50 in the assay with SR is 15.3 µM (inactive); in the assay with HOP-92, 18.8 µM (inactive); in the assay with OVCAR-5 it was 27.9 µM (inactive).

With `CN(C)CCNC(=O)c1cccc2c(NC(CCC(N)=O)C(=O)O)c3ccccc3nc12` (configuration not stated), the GI50 was 4.8 µM (inactive) in the assay on COLO 205; 4.08 µM with HCT-15; 5.56 µM (inactive) in the assay on Malme-3M; 8.2 µM (inactive) in the assay with UACC-257; 5.48 µM (inactive) in the assay on LOX IMVI; 5.43 µM (inactive) in the assay on PC-3. Moreover, the GI50 is 18.5 µM (inactive) in the assay on CCRF-CEM; 12.5 µM (inactive) in the assay on SK-MEL-28; 11.1 µM (inactive) with NCI-H460; 4.95 µM (inactive) with NCI-H226; 12.6 µM (inactive) with OVCAR-3; 16.1 µM (inactive) in the assay with OVCAR-4. The GI50 was 16.2 µM (inactive) in the assay on A498; 5.14 µM (inactive) with SF-268; > 100 µM (inactive) in the assay on SR; 14.5 µM (inactive) with HOP-92; 7.66 µM (inactive) in the assay on MDA-MB-231; 9.51 µM (inactive) with OVCAR-5. In the assay on DU-145, the GI50 is 19.5 µM (inactive).

Regarding `CCOc1cc2c(cc1O)/C(=N\OC)C[C@@H]1[C@@H]2CC[C@]2(C)[C@@H](O)CC[C@@H]12`, the GI50 was 16.3 µM (inactive) in the assay on COLO 205; 0.0653 µM in the assay with HCT-15; 0.129 µM (active) in the assay with Malme-3M; 0.122 µM (active) in the assay on LOX IMVI; 1.39 µM (inactive) in the assay with PC-3; 0.299 µM (active) in the assay with CCRF-CEM. In addition, the GI50 in the assay on SK-MEL-28 was 1.61 µM (inactive); in the assay with NCI-H460, 0.308 µM (active); in the assay with NCI-H226 it was 0.106 µM (active); in the assay with OVCAR-3 it was < 0.0205 µM (active); with OVCAR-4 it was 10.7 µM (inactive); in the assay on A498, 0.0908 µM (active). Also, the GI50 in the assay on SF-268 is 0.625 µM (active); with SR it was 0.0127 µM (active); in the assay on HOP-92, 7.64 µM (inactive); in the assay with MDA-MB-231, 0.685 µM (active); in the assay with OVCAR-5, 21.6 µM (inactive); in the assay with DU-145, 0.326 µM (active).

On to `COC(=O)C1C(O)C(C(=O)OC)C(C)N(C)C1C` (configuration not stated), for which the GI50 was > 100 µM (inactive) with COLO 205; above 100 µM in the assay with HCT-15; > 100 µM (inactive) in the assay on UACC-257; > 100 µM (inactive) with LOX IMVI; > 100 µM (inactive) in the assay on PC-3; > 100 µM (inactive) in the assay with CCRF-CEM. Moreover, the GI50 with SK-MEL-28, in the assay on NCI-H460, in the assay on NCI-H226, in the assay with OVCAR-3, with OVCAR-4 and in the assay on A498 was > 100 µM (inactive) each time. Moreover, the GI50 in the assay on SR, in the assay on HOP-92, in the assay on MDA-MB-231 and with OVCAR-5 was > 100 µM (inactive) in each case.

Take `O=C(N/C(=C\c1cc(Cl)ccc1Cl)c1nc2c(O)nc(S)nc2[nH]1)c1ccccc1`: the GI50 in the assay with COLO 205 is 37.4 µM (inactive); with HCT-15 it was 17.2 µM; in the assay on Malme-3M, > 90.2 µM (inactive); with LOX IMVI, 22.1 µM (inactive); in the assay on CCRF-CEM, 13.4 µM (inactive); with SK-MEL-28, 28.1 µM (inactive). Also, the GI50 in the assay on NCI-H460 is 34.5 µM (inactive); with NCI-H226, > 100 µM (inactive); in the assay on OVCAR-3, 43.5 µM (inactive); in the assay on OVCAR-4, 39.9 µM (inactive); in the assay with A498, > 100 µM (inactive); in the assay with SF-268, 33.4 µM (inactive). Besides, the GI50 was 25.5 µM (inactive) with SR, > 44.6 µM (inactive) with HOP-92 and > 100 µM (inactive) with OVCAR-5.

Consider `COC(=O)CC1(O)C(=O)OCc2c1cc1n(c2=O)Cc2c-1nc1ccccc1c2OC` (configuration not stated), for which the GI50 with COLO 205 is 3.77 µM (inactive); with HCT-15, 4.61 µM; in the assay on Malme-3M, 3.3 µM (inactive); in the assay on UACC-257, 5.38 µM (inactive); with LOX IMVI it was 0.0993 µM (active); in the assay on CCRF-CEM, < 0.0171 µM (active). Also, the GI50 in the assay on SK-MEL-28 was 27.5 µM (inactive); in the assay with NCI-H460, 0.0185 µM (active); with NCI-H226 it was 0.115 µM (active); in the assay on OVCAR-3, 3.86 µM (inactive); in the assay with OVCAR-4, 4.82 µM (inactive); in the assay on A498, 0.724 µM (active). For the same molecule, the GI50 was 0.133 µM (active) in the assay with SF-268, < 0.01 µM (active) in the assay on SR, 12.3 µM (inactive) in the assay with HOP-92 and 0.902 µM (active) with OVCAR-5.

Consider `CC(NC(=O)C(N)Cc1ccc(O)cn1)C(=O)O` (configuration not stated), for which the GI50 is > 100 µM (inactive) in the assay on COLO 205; above 100 µM in the assay on HCT-15; > 100 µM (inactive) in the assay with Malme-3M; > 100 µM (inactive) with UACC-257; > 100 µM (inactive) with LOX IMVI; > 100 µM (inactive) in the assay with PC-3. For the same molecule, the GI50 in the assay with CCRF-CEM, in the assay on SK-MEL-28, in the assay on NCI-H460, in the assay with NCI-H226, in the assay with OVCAR-3 and with OVCAR-4 was > 100 µM (inactive) throughout. The GI50 in the assay with A498, with SF-268, in the assay on SR, in the assay with HOP-92, in the assay with MDA-MB-231 and in the assay with OVCAR-5 was > 100 µM (inactive) in each case. The GI50 with DU-145 is > 100 µM (inactive).

In the case of `Cc1cc(N(CCC#N)CCC#N)ccc1/C=C1N=C(/C=C\c2ccccc2)OC\1=O`, the GI50 was > 100 µM (inactive) with COLO 205; above 100 µM in the assay on HCT-15; > 100 µM (inactive) in the assay on Malme-3M; > 100 µM (inactive) in the assay on UACC-257; > 100 µM (inactive) with LOX IMVI; > 100 µM (inactive) with CCRF-CEM. Besides, the GI50 in the assay with SK-MEL-28, with NCI-H460, with NCI-H226, in the assay on OVCAR-3, with OVCAR-4 and in the assay on A498 was > 100 µM (inactive) each time. Further, the GI50 with SF-268 is > 100 µM (inactive); with SR it was 30.3 µM (inactive); in the assay on HOP-92, > 100 µM (inactive); in the assay on OVCAR-5, > 100 µM (inactive).

For the molecule `CCOC(=O)C1=c2[nH]c3cccc4cccc(c43)n2C(=O)CC1`, the GI50 is 43.8 µM (inactive) with COLO 205; 39.3 µM in the assay with HCT-15; > 100 µM (inactive) with UACC-257; 25.4 µM (inactive) in the assay with LOX IMVI; 93.8 µM (inactive) with PC-3; 24.3 µM (inactive) in the assay on CCRF-CEM. For the same molecule, the GI50 with SK-MEL-28, in the assay on NCI-H460, in the assay on OVCAR-3, in the assay on OVCAR-4, in the assay with A498 and in the assay on SR was > 100 µM (inactive) each time. For the same molecule, the GI50 in the assay on T47D is 22.5 µM (inactive); with HOP-92, 30.5 µM (inactive); in the assay with OVCAR-5, > 100 µM (inactive); in the assay on DU-145 it was 51.6 µM (inactive).

As to `C#Cc1cc(-c2nc3ccccc3s2)ccc1N`, the GI50 with COLO 205 is 17.5 µM (inactive); in the assay on HCT-15, 17.5 µM; with Malme-3M it was 24.4 µM (inactive); in the assay with UACC-257, 12.6 µM (inactive); with LOX IMVI, 13.7 µM (inactive); in the assay on PC-3 it was 24.9 µM (inactive). Also, the GI50 was 23.3 µM (inactive) with CCRF-CEM; 16.1 µM (inactive) in the assay on SK-MEL-28; 16.5 µM (inactive) in the assay with NCI-H460; 12.4 µM (inactive) with NCI-H226; 16.8 µM (inactive) in the assay on OVCAR-3; 17.6 µM (inactive) in the assay with OVCAR-4. The GI50 with SF-268 is 25.8 µM (inactive); in the assay with SR it was 25.1 µM (inactive); in the assay on T47D it was 14.5 µM (inactive); in the assay with HOP-92, 11 µM (inactive); with OVCAR-5 it was 32 µM (inactive); in the assay on DU-145 it was 16.7 µM (inactive).

As to `Cc1c(C(=O)/C=C/c2ccccc2[N+](=O)[O-])[n+]([O-])c2ccccc2[n+]1[O-]`, the GI50 is 3.13 µM (inactive) in the assay with COLO 205; 3.3 µM in the assay on HCT-15; 13.3 µM (inactive) with Malme-3M; 7.53 µM (inactive) with UACC-257; 11.7 µM (inactive) in the assay with SK-MEL-28; 4.32 µM (inactive) with NCI-H460. Further, the GI50 was 11.4 µM (inactive) with NCI-H226; 3.76 µM (inactive) in the assay with OVCAR-3; 9.64 µM (inactive) with OVCAR-4; 13.3 µM (inactive) in the assay with A498; 4.34 µM (inactive) in the assay on SR; 13.6 µM (inactive) in the assay on HOP-92. Also, the GI50 in the assay on OVCAR-5 is 13.7 µM (inactive).
